According to paper PMC6364417, “Kinase inhibitor library screening identifies synergistic drug combinations effective in sensitive and resistant melanoma cells” (Journal of Experimental & Clinical Cancer Research : CR, 2019):

What was measured:
Experiment in all cases: Kinase inhibitor library screening, PrestoBlue cell viability, 1 or 10 μM, 72 h
[1] = test system: A375-GP cells (Dabrafenib-resistant); details: A375 GP, 72 h
[2] = test system: A375-XP cells (Vemurafenib-resistant); details: A375 XP, 72 h
501Mel cells (parental) = details: 501Mel Parental, 72 h; for Cell viability in kinase inhibitor library screening, 501Mel Parental, 1μΜ / Cell viability in kinase inhibitor library screening, 501Mel Parental, 10μΜ: in %
Procedure, shortened: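 Single-point screen at two doses over three days. Parental and BRAF-inhibitor-resistant sublines (XP: Vemurafenib; GP: Dabrafenib) were assessed by PrestoBlue viability, reported relative to untreated cells.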

[3] = test system: IGR37-XP cells (Vemurafenib-resistant); details: IGR37 XP, 72 h; for Cell viability in kinase inhibitor library screening, IGR37 XP, 1μΜ: in %
IGR37 cells (parental) = details: IGR37 Parental, 72 h; for Cell viability in kinase inhibitor library screening, IGR37 Parental, 1μΜ / Cell viability in kinase inhibitor library screening, IGR37 Parental, 10μΜ: in %
[4] = test system: 501Mel-GP cells (Dabrafenib-resistant); details: 501Mel GP, 72 h; for Cell viability in kinase inhibitor library screening, 501Mel GP, 1μΜ / Cell viability in kinase inhibitor library screening, 501Mel GP, 10μΜ: in %
[5] = test system: 501Mel-XP cells (Vemurafenib-resistant); details: 501Mel XP, 72 h; for Cell viability in kinase inhibitor library screening, 501Mel XP, 1μΜ / Cell viability in kinase inhibitor library screening, 501Mel XP, 10μΜ: in %
A375 cells (parental) = details: A375 Parental, 72 h
[6] = test system: IGR37-GP cells (Dabrafenib-resistant); details: IGR37 GP, 72 h; for Cell viability in kinase inhibitor library screening, IGR37 GP, 1μΜ: in %

SMILES | cell viability (kinase inhibitor library screening) ([1]; 10μΜ) | cell viability (kinase inhibitor library screening) ([2]; 10μΜ) | Cell viability in kinase inhibitor library screening, A375 GP, 1μΜ ([1]; 1μΜ) | Cell viability in kinase inhibitor library screening, A375 GP, 10μΜ ([1]; 10μΜ) | Cell viability in kinase inhibitor library screening, A375 XP, 1μΜ ([2]; 1μΜ) | Cell viability in kinase inhibitor library screening, A375 XP, 10μΜ ([2]; 10μΜ) | Cell viability in kinase inhibitor library screening, 501Mel Parental, 1μΜ (501Mel cells (parental); 1μΜ) | Cell viability in kinase inhibitor library screening, 501Mel Parental, 10μΜ (501Mel cells (parental); 10μΜ) | Cell viability in kinase inhibitor library screening, IGR37 XP, 10μΜ ([3]; 10μΜ) | Cell viability in kinase inhibitor library screening, IGR37 XP, 1μΜ ([3]; 1μΜ) | Cell viability in kinase inhibitor library screening, IGR37 Parental, 1μΜ (IGR37 cells (parental); 1μΜ) | Cell viability in kinase inhibitor library screening, IGR37 Parental, 10μΜ (IGR37 cells (parental); 10μΜ) | Cell viability in kinase inhibitor library screening, 501Mel GP, 1μΜ ([4]; 1μΜ) | Cell viability in kinase inhibitor library screening, 501Mel GP, 10μΜ ([4]; 10μΜ) | Cell viability in kinase inhibitor library screening, 501Mel XP, 1μΜ ([5]; 1μΜ) | Cell viability in kinase inhibitor library screening, 501Mel XP, 10μΜ ([5]; 10μΜ) | Cell viability in kinase inhibitor library screening, A375 Parental, 10μΜ (A375 cells (parental); 10μΜ) | Cell viability in kinase inhibitor library screening, A375 Parental, 1μΜ (A375 cells (parental); 1μΜ) | Cell viability in kinase inhibitor library screening, IGR37 GP, 10μΜ ([6]; 10μΜ) | Cell viability in kinase inhibitor library screening, IGR37 GP, 1μΜ ([6]; 1μΜ) | also measured
CC(C)NC[C@@H](C(=O)N1CCN(c2ncnc3c2[C@H](C)C[C@H]3O)CC1)c1ccc(Cl)cc1 [GDC-0068] | 79.9% | 85.5% |  |  |  |  |  |  |  |  |  |  |  |  |  |  |  |  |  |  | cell viability (kinase inhibitor library screening) (501Mel cells (parental); 1μΜ): 103.4%; cell viability (kinase inhibitor library screening) (501Mel cells (parental); 10μΜ): 81.6%; cell viability (kinase inhibitor library screening) ([3]; 1μΜ): 95.3%; cell viability (kinase inhibitor library screening) ([3]; 10μΜ): 23.8%; cell viability (kinase inhibitor library screening) (IGR37 cells (parental); 1μΜ): 102.7%; cell viability (kinase inhibitor library screening) (IGR37 cells (parental); 10μΜ): 90.8%; cell viability (kinase inhibitor library screening) ([4]; 1μΜ): 92.7%; cell viability (kinase inhibitor library screening) ([4]; 10μΜ): 56.7%; cell viability (kinase inhibitor library screening) ([5]; 1μΜ): 85.0%; cell viability (kinase inhibitor library screening) ([5]; 10μΜ): 36.9%; cell viability (kinase inhibitor library screening) (A375 cells (parental); 10μΜ): 77.7%; cell viability (kinase inhibitor library screening) (A375 cells (parental); 1μΜ): 104.3%; cell viability (kinase inhibitor library screening) ([6]; 1μΜ): 97.0%; cell viability (kinase inhibitor library screening) ([6]; 10μΜ): 79.0%
OCCn1cc(-c2ccc3c(c2)CC/C3=N\O)c(-c2ccncc2)n1 [GDC-0879] |  |  | 85.8 | 44.0 | 91.2 | 47.1 | 79.0 | 63.5 | 60.4% | 110.2 | 66.4 | 27.4 | 108.3 | 94.0 | 97.9 | 89.8 | 28.9 | 49.6 | 88.9% | 99.1 | 
Cc1c(CN2CCN(C(=O)[C@H](C)O)CC2)sc2c(N3CCOCC3)nc(-c3cnc(N)nc3)nc12 [GDC-0980 (RG7422)] |  |  | 33.1 | 4.0 | 31.2 | 3.3 | 19.3 | 1.0 | 1.5% | 21.6 | 35.3 | 2.0 | 21.4 | 5.1 | 15.9 | 0.8 | 2.2 | 22.3 | 2.9% | 58.6 | 
C[C@@H](Oc1cc(-n2cnc3ccc(CN4CCN(C)CC4)cc32)sc1C(N)=O)c1ccccc1C(F)(F)F [GSK461364] |  |  | 12.0 | 26.2 | 26.8 | 31.7 | 18.0 | 16.7 | 28.5% | 70.5 | 29.0 | 57.5 | 14.1 | 31.3 | 8.8 | 5.4 | 29.0 | 8.9 | 69.3% | 91.5 | 
CCn1c(-c2nonc2N)nc2c(C#CC(C)(C)O)ncc(OC[C@H]3CCCNC3)c21 [GSK690693] | 92.8% | 87.9% |  |  |  |  |  |  |  |  |  |  |  |  |  |  |  |  |  |  | cell viability (kinase inhibitor library screening) ([1]; 1μΜ): 99.1%; cell viability (kinase inhibitor library screening) ([2]; 1μΜ): 96.1%; cell viability (kinase inhibitor library screening) (501Mel cells (parental); 1μΜ): 87.0%; cell viability (kinase inhibitor library screening) (501Mel cells (parental); 10μΜ): 43.2%; cell viability (kinase inhibitor library screening) ([3]; 1μΜ): 94.0%; cell viability (kinase inhibitor library screening) ([3]; 10μΜ): 18.7%; cell viability (kinase inhibitor library screening) (IGR37 cells (parental); 1μΜ): 104.5%; cell viability (kinase inhibitor library screening) (IGR37 cells (parental); 10μΜ): 68.7%; cell viability (kinase inhibitor library screening) ([4]; 1μΜ): 87.1%; cell viability (kinase inhibitor library screening) ([4]; 10μΜ): 33.9%; cell viability (kinase inhibitor library screening) ([5]; 1μΜ): 66.4%; cell viability (kinase inhibitor library screening) ([5]; 10μΜ): 17.0%; cell viability (kinase inhibitor library screening) (A375 cells (parental); 10μΜ): 99.2%; cell viability (kinase inhibitor library screening) ([6]; 1μΜ): 93.2%; cell viability (kinase inhibitor library screening) ([6]; 10μΜ): 65.9%
O=C1NC(=O)/C(=C/c2ccc3nccc(-c4ccncc4)c3c2)S1 [GSK1059615] |  |  | 59.6 | 4.2 | 54.8 | 3.7 | 65.3 | 1.4 | 2.2% | 58.7 | 82.5 | 4.7 | 45.2 | 1.5 | 43.3 | 0.262 | 4.4 | 62.0 | 6.4% | 75.2 | 
